{"source": "patent EP0435794A1", "about": "“Alkenyl- or heteroaryl thio, sulfone, sulfoxy herbicides” (RHONE-POULENC AGROCHIMIE, priority 1989, dated 1991)", "assay_type_in_all_cases": "in vivo", "key": {"ALISMA CANALICULATUM": {"tested_on": "ALISMA CANALICULATUM", "experiment": "Exemple D: herbicide application pre or post emergence on submerged plants (rice paddy model)", "settings": "2-leaf stage, 24 days", "from_the_text": "(§1) Exemple D : Application herbicide en pré ou post levée d'espèces végétales submergées (modèle rizière)\n(§2) Dans des pots de 9 x 9 x 9 cm remplis de terre agricole on sème un nombre de graines ou on plante un nombre de bulbes ou rhizomes déterminé en fonction de l'espèce végétale ou de la grosseur des organes. Pour le riz, 4 plants au stade 2-3 feuilles sont transplantés dans un pot rempli de terre végétale 4 jours avant le traitement.\n(§3) Les pots sont ensuite immergés dans un bac de taille adapté aux pots de manière à ce que l'eau recouvre de 1 à 2 cm la surface du sol.\n(§4) Le stade de traitement est le stade prélevée ou 1 à 2 feuilles développées des adventices. Le traitement est effectué par répartition de la bouillie dans l'eau de submersion en quantité correspondant à une dose d'application de 500 l/ha et contenant la matière active à la concentration requise.\n(§5) La bouillie utilisée pour le traitement est une solution ou suspension de la matière active dans un mélange acétone/eau en proportion 50/50, en présence de 0,05 % en poids de Cemulsol NP 10 (agent tensioactif constitué d'alkylphénol polyéthoxylé, notamment de nonylphénol polyéthoxylé) et 0,04 % en poids de tween 20 (agent tensio-actif constitué d'un oléate de dérivé polyoxyéthyléné du sorbitol).\n(§6) Dans le cas d'une suspension, celle-ci est obtenue en mélangeant et broyant les ingrédients dans un microniseur de façon à obtenir une grosseur moyenne de particules inférieures à 40 microns.\n(§7) Le niveau d'eau de submersion est ensuite maintenu par apport d'eau tout au long de la durée de l'expérimentation soit […]. Les bacs contenant les pots sont placés dans une serre régulée en température à 18°C la nuit et 22°C le jour et en humidité à 70 % d'humidité relative.\n(§8) Au bout de 24 jours, on compte le nombre de plantes vivantes dans les pots traités par la bouillie contenant la matière active à tester et le nombre de plantes vivantes dans un pot témoin traité selon les mêmes conditions, mais au moyen d'une bouillie ne contenant pas de matière active. On mesure ainsi un pourcentage (D) des destructions du nombre de pieds dans le pot traité par rapport au nombre de plantes dans les pots non traités (témoin). On mesure, sur les plantes traitées restantes, le pourcentage de réduction de taille (RT) par rapport aux plantes témoin. Le pourcentage du volume foliaire non détruit par le produit est donc donné par la formule: ([100-D] x [100-RT])/(100)= A [formula]\n(§9) Cette valeur A est transformée en notation de 0 à 5 selon l'échelle suivante:\n(§10) Les résultats obtenus sont présentés dans le tableau suivant pour des doses d'application de 500, 1000 ou 2000 g de matière active par hectare."}, "Echinochloa crus galli [1]": {"tested_on": "Echinochloa crus galli", "experiment": "Exemple D: herbicide application pre or post emergence on submerged plants (rice paddy model)", "settings": "24 days; for % d'efficacité ECHINOCHLOA CRUS GALLI (1 feuille): 1-leaf stage; for % d'efficacité ECHINOCHLOA CRUS GALLI (prélevée): pre-emergence", "from_the_text": "as §1, §2, §3, §4, §5, §6, §7, §8, §9, §10"}, "CYPERUS SEROTINUS": {"tested_on": "CYPERUS SEROTINUS", "experiment": "Exemple D: herbicide application pre or post emergence on submerged plants (rice paddy model)", "settings": "24 days; for % d'efficacité CYPERUS SEROTINUS (1 feuille): 1-leaf stage; for % d'efficacité CYPERUS SEROTINUS (prélevée): pre-emergence", "from_the_text": "as §1, §2, §3, §4, §5, §6, §7, §8, §9, §10"}, "[2]": {"tested_on": "ORYSA SATIVA Cv Nihonbare", "experiment": "Exemple D: herbicide application on submerged plants (rice paddy model), transplanted rice", "settings": "rice transplanted 4 days before treatment, 24 days", "from_the_text": "as §1, §2, §3, §4, §5, §6, §7, §8, §9, §10\nCOMPOSE N°5/RIZ (transplanté 4 jours avant traitement)"}, "Avena fatua": {"tested_on": "Avena fatua", "experiment": "Exemple A: herbicide application, pre-emergence", "settings": "notation 0 à 5 after 24 days", "from_the_text": "(§11) Exemple A - Application herbicide, en prélevée des espèces végétales\n(§12) Dans des pots de 7 x 7 x 8 cm remplis de terre agricole légère, on sème un nombre de graines déterminé en fonction de l'espèce végétale et de la grosseur de la graine.\n(§13) Les pots sont traités par pulvérisation de bouillie en quantité correspondant à une dose volumique d'application de 500 l/ha et contenant la matière active à la concentration désirée.\n(§14) Le traitement avec la bouillie est donc effectué sur des graines non recouvertes de terre (on utilise le terme de bouillie pour désigner, en général, les compositions diluées à l'eau, telles qu'on les applique sur les végétaux).\nas §5, with “proportions” for “proportion”, “cemulsol” for “Cemulsol”, “tensio-actif)” for “tensioactif”\n(§15) Dans le cas d'une suspension, celle-ci est obtenue en mélangeant et broyant les ingrédients dans un microniseur de façon à obtenir une grosseur moyenne de particules inférieure à 40 microns.\n(§16) Après traitement, on recouvre les graines d'une couche de terre d'environ 3 mm d'épaisseur.\n(§17) Les pots sont alors placés dans des bacs destinés à recevoir l'eau d'arrosage, en subirrigation, et maintenus pendant 24 jours à température ambiante sous 70 % d'humidité relative.\n(§18) Le relevé est effectué de la façon suivante:\n(§19) Au bout de 24 jours, on mesure un pourcentage (D) des destructions du nombre de pieds dans le pot traité par rapport au nombre de plantes dans les pots non traités (témoin). On mesure, sur les plantes traitées restantes, le pourcentage de réduction de taille (RT) par rapport aux plantes témoin.\n(§20) Le pourcentage du volume foliaire non détruit par le produit est donc donné par la formule: ([100-D] x [100-RT])/(100)= A [formula]\nas §9\n(§21) Les résultats obtenus sont présentés après l'exemple B pour des doses d'application de 4000 g/ha à 1000 g/ha.\n(§22) Les espèces végétales utilisées dans ces exemples A et B sont: […]"}, "Echinochloa crus galli [3]": {"tested_on": "Echinochloa crus galli", "experiment": "Exemple A: herbicide application, pre-emergence", "settings": "notation 0 à 5 after 24 days", "from_the_text": "as §11, §12, §13, §14\nas §5, with “proportions” for “proportion”, “cemulsol” for “Cemulsol”, “tensio-actif)” for “tensioactif”\nas §15, §16, §17, §18, §19, §20, §9, §21, §22"}, "Digitaria sanguinalis": {"tested_on": "Digitaria sanguinalis", "experiment": "Exemple A: herbicide application, pre-emergence", "settings": "notation 0 à 5 after 24 days", "from_the_text": "as §11, §12, §13, §14\nas §5, with “proportions” for “proportion”, “cemulsol” for “Cemulsol”, “tensio-actif)” for “tensioactif”\nas §15, §16, §17, §18, §19, §20, §9, §21, §22"}, "Alopecurus myosuroïdes": {"tested_on": "Alopecurus myosuroïdes", "experiment": "Exemple A: herbicide application, pre-emergence", "settings": "notation 0 à 5 after 24 days", "from_the_text": "as §11, §12, §13, §14\nas §5, with “proportions” for “proportion”, “cemulsol” for “Cemulsol”, “tensio-actif)” for “tensioactif”\nas §15, §16, §17, §18, §19, §20, §9, §21, §22"}, "Cyperus esculentus": {"tested_on": "Cyperus esculentus", "experiment": "Exemple A: herbicide application, pre-emergence", "settings": "notation 0 à 5 after 24 days", "from_the_text": "as §11, §12, §13, §14\nas §5, with “proportions” for “proportion”, “cemulsol” for “Cemulsol”, “tensio-actif)” for “tensioactif”\nas §15, §16, §17, §18, §19, §20, §9, §21, §22"}, "[4]": {"settings": "500 g de matière active par hectare"}, "[5]": {"settings": "1000 g de matière active par hectare"}}}
{"smiles": "CCCCOCN(C(=O)CCl)c1c(CC)cccc1CC", "note": "[Butachlor, reference compound]", "values": [{"measurement": "% d'efficacité ALISMA CANALICULATUM (2 feuilles)", "setting": "ALISMA CANALICULATUM; [4]", "result": "4 (10 à 30)"}, {"measurement": "% d'efficacité ALISMA CANALICULATUM (2 feuilles)", "setting": "ALISMA CANALICULATUM; [5]", "result": "5 (0 à 10)"}, {"measurement": "% d'efficacité ECHINOCHLOA CRUS GALLI (1 feuille)", "setting": "Echinochloa crus galli [1]; [4]", "result": "1 (70 à 90)"}, {"measurement": "% d'efficacité ECHINOCHLOA CRUS GALLI (1 feuille)", "setting": "Echinochloa crus galli [1]; [5]", "result": "4 (10 à 30)"}, {"measurement": "% d'efficacité ECHINOCHLOA CRUS GALLI (prélevée)", "setting": "Echinochloa crus galli [1]; [4]", "result": "5 (0 à 10)"}, {"measurement": "% d'efficacité ECHINOCHLOA CRUS GALLI (prélevée)", "setting": "Echinochloa crus galli [1]; [5]", "result": "5 (0 à 10)"}, {"measurement": "% d'efficacité CYPERUS SEROTINUS (1 feuille)", "setting": "CYPERUS SEROTINUS; [4]", "result": "0 (90 à 100)"}, {"measurement": "% d'efficacité CYPERUS SEROTINUS (1 feuille)", "setting": "CYPERUS SEROTINUS; [5]", "result": "1 (70 à 90)"}, {"measurement": "% d'efficacité CYPERUS SEROTINUS (prélevée)", "setting": "CYPERUS SEROTINUS; [4]", "result": "0 (90 à 100)"}, {"measurement": "% d'efficacité CYPERUS SEROTINUS (prélevée)", "setting": "CYPERUS SEROTINUS; [5]", "result": "1 (70 à 90)"}, {"measurement": "% d'efficacité ORYSA SATIVA Cv Nihonbare", "setting": "[2]; [4]", "result": "0 (90 à 100)"}, {"measurement": "% d'efficacité ORYSA SATIVA Cv Nihonbare", "setting": "[2]; [5]", "result": "0 (90 à 100)"}]}
{"smiles": "C=C(CS(=O)(=O)c1cccs1)c1cccc(F)c1", "note": "[compound 3, 2-(3-fluorophényl) 1-(2-thiénylsulfonyl) 2-propène]", "values": [{"measurement": "ACTIVITE HERBICIDE DE PRELEVEE AVE", "setting": "Avena fatua; dose 1 Kg m.a./ha", "result": "1 (70 à 90)"}, {"measurement": "ACTIVITE HERBICIDE DE PRELEVEE ECH", "setting": "Echinochloa crus galli [3]; dose 1 Kg m.a./ha", "result": "5 (O à 10)"}, {"measurement": "ACTIVITE HERBICIDE DE PRELEVEE DIG", "setting": "Digitaria sanguinalis; dose 1 Kg m.a./ha", "result": "5 (O à 10)"}, {"measurement": "ACTIVITE HERBICIDE DE PRELEVEE ALO", "setting": "Alopecurus myosuroïdes; dose 1 Kg m.a./ha", "result": "5 (O à 10)"}, {"measurement": "ACTIVITE HERBICIDE DE PRELEVEE CYP", "setting": "Cyperus esculentus; dose 1 Kg m.a./ha", "result": "5 (O à 10)"}]}
{"smiles": "C=C(CS(=O)(=O)c1cccs1)c1cccc(Cl)n1", "note": "[compound 4, 2-(6-chloro 2-pyridyl) 1-(2-thiénylsulfonyl) 2-propène]", "values": [{"measurement": "ACTIVITE HERBICIDE DE PRELEVEE AVE", "setting": "Avena fatua; dose 4 Kg m.a./ha", "result": "3 (30 à 50)"}, {"measurement": "ACTIVITE HERBICIDE DE PRELEVEE ECH", "setting": "Echinochloa crus galli [3]; dose 4 Kg m.a./ha", "result": "5 (O à 10)"}, {"measurement": "ACTIVITE HERBICIDE DE PRELEVEE DIG", "setting": "Digitaria sanguinalis; dose 4 Kg m.a./ha", "result": "5 (O à 10)"}, {"measurement": "ACTIVITE HERBICIDE DE PRELEVEE ALO", "setting": "Alopecurus myosuroïdes; dose 4 Kg m.a./ha", "result": "5 (O à 10)"}, {"measurement": "ACTIVITE HERBICIDE DE PRELEVEE CYP", "setting": "Cyperus esculentus; dose 4 Kg m.a./ha", "result": "5 (O à 10)"}]}
